Source: patent US6514540B1, “Therapeutic composition including plantain and aloe vera for treatment of arthritis and other afflictions” (priority 1999, dated 2003)

Test system: arthritic symptoms
Assay: Clinical trials: topical application for arthritis symptoms
Format: in vivo, human
Conditions: Subject No. 1, inflamed finger joint; injected locally and up to 80 mg orally over four to five months
Experimental: In addition, the entire finger and part of the hand was affected by the pain and the swelling resulting in restricted use of the hand.
The steroids were both injected locally and ingested in the form of up to 80 mg of prednazone, which was taken orally over a period of four to five months.
During this period, the frequency of the application of the cream or lotion and heat gradually diminished to three times per day without a need for augmentation of the treatment with heat.
Onset of these symptoms can result in a two- to three-fold increase in the size of a joint, with an inflammation of the surrounding tissue. This can occur in a matter of hours and affects the associated limb resulting in substantial pain, a loss of strength in the entire limb, sleep interruption (due to pain), and general malaise due to the intensity and continuous nature of the throbbing.

## C[C@]12C=CC(=O)C=C1CC[C@@H]1[C@@H]2C(=O)C[C@@]2(C)[C@H]1CC[C@]2(O)C(=O)CO [prednazone]
  relief of pain and swelling by conventional steroid treatment: some initial success in relieving both the pain and swelling, but upon elimination of the drug, the symptoms returned
